# Several values for one entry are separate records, joined by “and”; a condition that tells them apart may be missing. Equal entries are not always repeated.
# Tests used:
# [1] = test system: wild type and GPR40-/- mice; test: Mouse incretin measurements (plasma glucagon, wild type and GPR40-/- mice); format: in vivo; settings: for Plasma Glucagon: @ 30, individual animals (Fig 6A)
# Protocol: Wild type and GPR40-/- mice were weighed the day prior to dosing. Food was removed from mice at lights on. 2 hours later mice were dosed via oral gavage (PO) at a volume of 10 ml/kg with vehicle (0.5% methylcellulose), AP1 at 30 mg/kg, or AP3 at 30 mg/kg. At 60 minutes post dose, mice were euthanized via CO2 asphyxiation. Blood was collected via cardiac puncture.
# (§1) Blood for insulin, glucagon, GLP-1, GIP, and PYY measurements was collected into K2EDTA Microtainer tubes (BD, Franklin Lakes, NJ) pre-treated with DPP4 inhibitor (Millipore, Billerica, MA) and cOmplete™ Protease Inhibitor Cocktail Tablets (Roche Diagnostics, Indianapolis, IN). Tubes were centrifuged for 10 minutes at 5000 RPM, and plasma was aliquotted for analysis. Plasma insulin levels were measured via EIA (Mesoscale Discovery ELISA Kit, Gaithersburg MD). Rat plasma total GLP-1 was measured using Total GLP-1 (ver.2) Assay Kit (Cat#: K150JVC). The measurement of active GLP-1 was carried out in a similar manner as that described for total GLP-1 assay with the exception that MSD Active GLP-1 (ver. 2) assay kit (Cat# K150JWC) was used. Rat plasma glucagon was measured using an in-house glucagon assay developed as a MSD format sandwich immunoassay (Merck & Co., Inc., MRL, Kenilworth, NJ USA). The antibody specificity was cross validated via mass- spec using procedures described in Lee et al. Briefly, MSD Streptavidin Gold plates were coated with 2 μg/ml biotin mouse monoclonal antibody generated to glucagon. Test samples were added to the plates and a separate Sulfo- tagged monoclonal antibody was used to detect the captured glucagon protein (2 μg/ml). The ELISA was carried out in the standard reagents in the MSD format. The plate was read on the SECTOR Imager 6000 Reader. Metabolic hormones GIP (Gastric Inhibitory Polypeptide) and PYY (Peptide YY) were measured in rat plasma using the Rat Metabolic Magnetic Bead Panel (EMD Millipore, Billerica, MA). The assay was performed according to manufacturer protocol.
# [2] = test system: wild type C57BL/6 and GLP-1R-/- mice; test: Mouse glucose tolerance test (IPGTT, wild type and GLP-1R-/- mice); format: in vivo; parameters: Plasma Insulin Net AUC: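 insulin AUC integrated from 0 to 60 min after dextrose challenge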; Blood Glucose Net AUC: unit not given here; settings: for Blood Glucose / Plasma Insulin: 10 mpk, 10 mg/kg; for Blood Glucose Net AUC / Plasma Insulin Net AUC: @ 10, individual animals
# Protocol: Wild type C57BL/6 mice and GLP-1R^-/- mice were fed a high fat diet (D12492i, Research Diets) for 6 weeks prior to GTT. On the day of study, mice were fasted at 1 h post lights on, and body weights were measured. […] Mice were then dosed PO at a volume of 10 ml/kg with vehicle (0.5% methylcellulose), MK-2305 (a GPR40 partial agonist described in Hauge et al) at 10 mg/kg, or AP1 at 30 mg/kg. Dosages of MK-2305 and AP1 were administered at maximal efficacious doses as determined by acute dose titrations with efficacy determined via reduction in glucose during an IPGTT (data not shown). […] Blood glucose was measured again (time = 0) just prior to an intraperitoneal (IP) dextrose challenge of 1 g/kg at 10 ml/kg dose volume (Dextrose, Hospira Inc., Lake Forrest IL). A subset of vehicle treated mice was injected with 0.9% NaCl saline to serve as negative control. Blood glucose was then measured at 10, 20, 40, 60, and 120 min after challenge. To capture insulin secretion during the IPGTT, blood via tail vein was collected at t = - 60, 0, 10, 20, 40, 60 min post challenge.
# Net AUC was calculated by subtracting the average AUC of the saline group from each groups’ total AUC.
# as §1
# [3] = GLP-1R-/- and wild type mice, MK-2305 10 mg/kg, AP1 30 mg/kg PO
# [4] = KO mice, Time 0, individual animals
# [5] = KO mice, Time 10, individual animals
# [6] = KO mice, Time 20, individual animals
# [7] = KO mice, Time 40, individual animals
# [8] = KO mice, Time 60, individual animals
# [9] = KO mice, Time -60, individual animals
# [10] = WT mice, Time 0, individual animals
# [11] = WT mice, Time 10, individual animals
# [12] = WT mice, Time 20, individual animals
# [13] = WT mice, Time 60, individual animals
# [14] = WT mice, Time -60, individual animals
structure (smiles),measurement,setting,value
C[C@H](C(=O)O)[C@H](c1ccc2c(c1)O[C@H](C1CN(Cc3cc(C(F)(F)F)ccc3C(F)(F)F)C1)CC2)C1CC1 [AP3],Plasma Glucagon,[1]; KO mice,20.25 pg/mL and 37.44 pg/mL and 95.8 pg/mL and 40.58 pg/mL and 53.81 pg/mL and 63.13 pg/mL and 24.92 pg/mL
same,circulating glucagon,"[1]; WT mice, 30 mg/kg PO, 1h post dose",increase
same,Plasma Glucagon,[1]; WT mice,137.56 pg/mL and 161.08 pg/mL and 195.45 pg/mL and 174.67 pg/mL and 101.1 pg/mL and 67.12 pg/mL and 161.82 pg/mL
"O=C1NC(=O)C(C2CCOc3cc(Oc4ccc(C(F)(F)F)cc4Cl)ccc32)S1 (stereo not drawn) [MK-2305, reference compound]",blood glucose excursion during IPGTT,[2]; [3],reduced
same,insulin following dextrose challenge (IPGTT),[2]; [3],no effect
same,Blood Glucose,[2]; [4],151 mg/dL and 150 mg/dL and 186 mg/dL and 194 mg/dL and 152 mg/dL and 171 mg/dL and 161 mg/dL
same,Plasma Insulin,[2]; [4],0.848 ng/mL and 0.42 ng/mL and 0.528 ng/mL and 1.053 ng/mL and 0.383 ng/mL and 0.356 ng/mL and 0.379 ng/mL
same,Blood Glucose,[2]; [5],359 mg/dL and 371 mg/dL and 443 mg/dL and 389 mg/dL and 416 mg/dL and 530 mg/dL
same,Plasma Insulin,[2]; [5],1.175 ng/mL and 0.368 ng/mL and 0.464 ng/mL and 0.199 ng/mL and 0.51 ng/mL and 0.24 ng/mL and 0.661 ng/mL
same,Blood Glucose,[2]; [6],361 mg/dL and 257 mg/dL and 455 mg/dL and 411 mg/dL and 438 mg/dL and 432 mg/dL and 566 mg/dL
same,Plasma Insulin,[2]; [6],1.151 ng/mL and 0.543 ng/mL and 0.441 ng/mL and 1.015 ng/mL and 0.58 ng/mL and 0.405 ng/mL and 0.254 ng/mL
same,Blood Glucose,[2]; [7],332 mg/dL and 292 mg/dL and 386 mg/dL
same,Plasma Insulin,[2]; [7],0.591 ng/mL and 0.442 ng/mL and 0.194 ng/mL and 0.983 ng/mL and 0.199 ng/mL and 0.278 ng/mL and 0.213 ng/mL
same,Blood Glucose,[2]; [8],346 mg/dL and 269 mg/dL and 435 mg/dL and 335 mg/dL and 332 mg/dL and 352 mg/dL and 512 mg/dL
same,Plasma Insulin,[2]; [8],0.58 ng/mL and 0.57 ng/mL and 0.264 ng/mL and 0.784 ng/mL and 0.335 ng/mL and 0.275 ng/mL and 0.261 ng/mL
same,Blood Glucose,"[2]; KO mice, Time 120, individual animals",303 mg/dL and 186 mg/dL and 397 mg/dL and 270 mg/dL and 224 mg/dL and 260 mg/dL and 402 mg/dL
same,Blood Glucose,[2]; [9],180 mg/dL and 203 mg/dL and 200 mg/dL and 205 mg/dL and 188 mg/dL and 236 mg/dL and 197 mg/dL
same,Plasma Insulin,[2]; [9],0.786 ng/mL and 0.573 ng/mL and 0.295 ng/mL and 0.819 ng/mL and 0.47 ng/mL and 0.336 ng/mL and 0.379 ng/mL
same,Blood Glucose,"[2]; KO mice, Time -90, individual animals",165 mg/dL and 181 mg/dL and 160 mg/dL and 198 mg/dL and 154 mg/dL and 193 mg/dL and 185 mg/dL
same,Blood Glucose Net AUC,[2]; KO mice,26136 and 8611 and -3694 and 17776 and 10566 and 8161 and 9656
same,Plasma Insulin Net AUC,[2]; KO mice,-6.842 and 24.846 and 2.455 and -5.609 and 23.949 and -2.988 and -7.445
same,Blood Glucose,[2]; [10],173 mg/dl and 130 mg/dl (2×) and 172 mg/dl and 136 mg/dl and 151 mg/dl and 154 mg/dl
same,Plasma Insulin,[2]; [10],2.909 ng/mL and 1.344 ng/mL and 1.761 ng/mL and 0.655 ng/mL and 1.362 ng/mL and 1.244 ng/mL and 1.598 ng/mL
same,Blood Glucose,[2]; [11],300 mg/dL and 375 mg/dL and 416 mg/dL and 324 mg/dL and 318 mg/dL and 369 mg/dL and 438 mg/dL
same,Plasma Insulin,[2]; [11],1.538 ng/mL and 1.501 ng/mL and 2.253 ng/mL and 0.689 ng/mL and 0.787 ng/mL and 2.31 ng/mL and 1.19 ng/mL
same,Blood Glucose,[2]; [12],341 mg/dL and 386 mg/dL and 396 mg/dL and 278 mg/dL and 357 mg/dL and 365 mg/dL and 487 mg/dL
same,Plasma Insulin,[2]; [12],3.87 ng/mL and 1.373 ng/mL and 1.842 ng/mL and 0.672 ng/mL and 0.733 ng/mL and 1.031 ng/mL and 1.681 ng/mL
same,Plasma Insulin,"[2]; WT mice, Time 40, individual animals",3.585 ng/mL and 1.27 ng/mL and 1.204 ng/mL and 0.278 ng/mL and 1.824 ng/mL and 0.546 ng/mL and 1.72 ng/mL
same,Blood Glucose,[2]; [13],285 mg/dL and 328 mg/dL and 270 mg/dL and 195 mg/dL and 296 mg/dL and 260 mg/dL and 442 mg/dL
same,Plasma Insulin,[2]; [13],2.679 ng/mL and 1.626 ng/mL and 1.133 ng/mL and 0.252 ng/mL and 0.763 ng/mL and 0.592 ng/mL and 1.175 ng/mL
same,Blood Glucose,"[2]; WT mice, Time 120, individual animals",328 mg/dL and 300 mg/dL and 191 mg/dL and 160 mg/dL and 218 mg/dL and 205 mg/dL and 311 mg/dL
same,Blood Glucose,[2]; [14],177 mg/dl (2×) and 182 mg/dl and 162 mg/dl (2×) and 153 mg/dl and 176 mg/dl
same,Plasma Insulin,[2]; [14],2.201 ng/mL and 1.482 ng/mL and 1.004 ng/mL and 0.467 ng/mL and 0.749 ng/mL and 1.475 ng/mL and 2.049 ng/mL
same,Blood Glucose,"[2]; WT mice, Time -90, individual animals",182 mg/dL and 151 mg/dL and 166 mg/dL and 146 mg/dL and 175 mg/dL and 155 mg/dL and 164 mg/dL
same,Blood Glucose Net AUC,[2]; WT mice,22732 and 10047 and 12357 and 7637 and -1383 and 8197 and 6232
same,Plasma Insulin Net AUC,[2]; WT mice,17.355 and 112.532 and 10.066 and 20.452 and -45.584 and -4.157 and -12.281
